Data on 2 compounds can be found in patent US4867737A, “Derivatives of 4-phenyl-4-oxo-2-butenoic acid their preparation process, their use as medicaments and compositions containing them” (Roussel UCLAF, priority 1986, dated 1989).

Data set [1] deals with total acidity of the gastric secretions. As to the kind of experiment: Anti-gastric secretory activity (pylorus ligature, Shay technique). The following applies: male rats, intraduodenal, 10 mg/kg, 3 hours. Type of data set: in vivo, rat. The protocol:
(1) Determination of the anti-gastric secretory activity.
The technique used is described by H. SHAY et al in Gastroenterology 5, 43, 1945.
Male rats are used weighing about 200 g (10 animals per group), deprived of nourishment for 48 hours, but having as much as desired of an 8% glucose solution. The pylorus of the rats is ligatured, the rats having been lightly anesthetized with ether. Then, at the end of the operation, the compounds under test are administered at various doses, or for the control animals, a 0.5% carboxymethyl cellulose solution is administered by intraduodenal route. Then the abdominal incision is sutured.
Three hours later, the animals are killed and their stomachs are removed after ligature of the oesophagus. The gastric juice is removed and centrifuged. Then the volume is measured; and on 100 μl of gastric juice, the total acidity is determined by titration at pH 7 with N/10 sodium hydroxide.
The percentages of variation of total acidity of the gastric secretions are calculated in relation to the results obtained with the control animals.

The nature of data set [2]: Acute toxicity (LD50), oral route. The following applies: in vivo, mouse. The protocol:
(3) Determination of actute toxicity
The lethal dose 50 (LD50) was evaluated after administration of the products by oral route to a mouse.

Data set [3] has as its system ulcers in the stomachs of the rats. Description: Anti-ulcer activity, ulcer from stress (constraint and cold). Type of data set: in vivo, rat. As to conditions: female rats, by probang, 10 mg/kg. The protocol:
(2) Determination of anti-ulcer activity
The technique consists of inducing ulcers in the stomachs of the rats through stress (constraint and cold.)
The technique used is described by E. C. SENAY and R. J. LEVINE, Proc. Soc. Exp. Biol. 124, 1221 (1967).
Female rats weighing 150 g are used (5 animals per group), starved for 48 hours with water "ad libitum" and glucose solution for 8 hours. The animals receive the product under test by a probang, or the control animals receive a 0.5% carboxymethyl cellulose solution.
Two hours later, the animals are wrapped up in a wire-netting jacket, their paws are bound and the whole is placed in a refrigerator at 8° C. for two hours. The rats are freed and killed with ether.
Their stomachs are removed, opened along the greater curvature and examined by means of a binocular magnifier; the seriousness of the lesions is rated from 0 to 3 for each stomach.
For each group of rats the average intensity of the ulcerations is calculated, then for each group the degree of ulceration in relation to the controls is determined.
Product 1 is the product of Example 1; Product p is the product of Example 1 of U.S. Pat. No. 4,473,583.

With `COc1ccccc1C(=O)/C=C/C(=O)O` [Product 1, (E) 4-(2-methoxyphenyl)-4-oxo-2-butenoic acid], in data set [1], the “Anti-secretory activity: Acid Concentration (% variation in relation to the controls)” value is -78%. In data set [2], this compound displayed an LD50 of 370 mg/kg. The “Anti-ulcer activity: Ulceration (% variation in relation to the controls)” value in data set [3] is recorded as -80%.

On to `O=C(O)C=CC(=O)c1ccccc1` [p], for which the “Anti-secretory activity: Acid Concentration (% variation in relation to the controls)” value in data set [1] is given as -66%. The compound also gave an LD50 in data set [2] of 250 mg/kg. Moreover, the “Anti-ulcer activity: Ulceration (% variation in relation to the controls)” value in data set [3] is recorded as -54%.
